Columns and labels:
[1] = biological target: T1, human adenosine A1 receptor (Homo sapiens, UniProt P30542); test: Adenosine A1 Receptor Functional Assay (A1GAL2); type: cell-based; conditions: CHO-K1 cells overexpressing human A1 receptor, cAMP inducible beta-galactosidase reporter, 4 nM r-PIA/1 uM Forskolin agonist challenge
T1 construct: expressed in transfected cells; host or cells: CHO-K1 cells with a cAMP inducible beta-galactosidase reporter gene
T1 sequence (P30542 1-326): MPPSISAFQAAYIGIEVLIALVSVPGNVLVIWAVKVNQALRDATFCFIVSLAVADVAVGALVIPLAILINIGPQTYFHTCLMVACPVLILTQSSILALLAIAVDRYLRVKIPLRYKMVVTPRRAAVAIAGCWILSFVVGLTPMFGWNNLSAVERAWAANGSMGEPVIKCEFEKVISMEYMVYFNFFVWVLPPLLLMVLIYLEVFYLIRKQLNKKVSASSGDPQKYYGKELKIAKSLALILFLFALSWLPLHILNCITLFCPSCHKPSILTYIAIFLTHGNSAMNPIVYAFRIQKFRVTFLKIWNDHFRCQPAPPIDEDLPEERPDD
Method: Adenosine A1 Receptor Functional Assay (A1GAL2)
To initiate the functional assay, cryopreserved CHO—K1 cells overexpressing the human adenosine A1 receptor and containing a cAMP inducible beta-galactosidase reporter gene were thawed, centrifuged, DMSO containing media removed, and then seeded with fresh culture media into clear 384-well tissue culture treated plates (BD #353961) at a concentration of 10K cells/well. Prior to assay, these plates were cultured for two days at 37° C., 5% CO2, 90% Rh. On the day of the functional assay, culture media was removed and replaced with 45 μL assay medium (Hams/F-12 Modified (Mediatech # 10-080CV) supplemented w/0.1% BSA). Test compounds were diluted and 11 point curves created at a 1000× concentration in 100% DMSO. Immediately after addition of assay media to the cell plates, 50 nL of the appropriate test compound antagonist or agonist control curves were added to cell plates using a Cartesian Hummingbird. Compound curves were allowed to incubate at room temperature on cell plates for approximately 15 minutes before addition of a 4 nM r-PIA (Sigma P4532)/1 uM Forskolin (Sigma F3917) agonist challenge (5 μL volume). A control curve of r-PIA in1 uM Forskolin, a DMSO/Media control, and a single dose of Forskolin were also included on each plate. After additions, cell plates were allowed to incubate at 37° C., 5% CO2, 90% Rh for 5.5-6 hours. After incubation, media was removed, and cell plates were washed 1×50 μL with DPBS w/o Ca & Mg (Mediatech 21-031-CV). Into dry wells, 20 μL of 1×Reporter Lysis Buffer (Promega E3971 (diluted in dH2O from 5× stock)) was added to each well and plates frozen at −20° C. overnight. For β-galactosidase enzyme colorimetric assay, plates were thawed out at room temperature and 20 μL 2×assay buffer (Promega) was added to each well. Color was allowed to develop at 37° C., 5% CO2, 90% Rh for 1-1.5 h or until reasonable signal appeared. The colorimetric reaction was stopped with the addition of 60 μL/well 1M sodium carbonate. Plates were counted at 405 nm on a SpectraMax Microplate Reader (Molecular Devices). Data was analyzed in Microsoft Excel and IC/EC50 curves were fit using a standardized macro.

[2] = biological target: T2, human adenosine A2A receptor (Homo sapiens, UniProt P29274); test: Adenosine A2A Receptor Functional Assay (A2A GAL2); type: cell-based; conditions: for IC50: CHO-K1 cells overexpressing human A2A receptor, cAMP inducible beta-galactosidase reporter, 15 nM NECA agonist challenge, read-out: A2AGal2; for A1/A2A: ratio of A1Gal2 to A2AGal2 values
T2 construct: expressed in transfected cells; host or cells: CHO-K1 cells with a cAMP inducible beta-galactosidase reporter gene
T2 sequence (P29274 whole entry): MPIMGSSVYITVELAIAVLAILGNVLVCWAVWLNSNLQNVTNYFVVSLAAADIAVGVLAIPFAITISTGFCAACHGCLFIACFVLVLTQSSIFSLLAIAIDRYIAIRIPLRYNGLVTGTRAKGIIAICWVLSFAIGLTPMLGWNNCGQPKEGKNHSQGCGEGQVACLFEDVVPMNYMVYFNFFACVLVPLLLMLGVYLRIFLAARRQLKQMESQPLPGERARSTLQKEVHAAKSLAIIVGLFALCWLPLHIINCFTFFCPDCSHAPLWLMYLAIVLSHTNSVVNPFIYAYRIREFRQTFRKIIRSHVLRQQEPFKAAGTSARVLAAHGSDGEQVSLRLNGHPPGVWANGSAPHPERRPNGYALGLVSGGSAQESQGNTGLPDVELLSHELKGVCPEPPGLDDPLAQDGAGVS
Method: Adenosine A2A Receptor Functional Assay (A2A GAL2)
To initiate the functional assay, cryopreserved CHO—K1 cells overexpressing the human adenosine A2A receptor and containing a cAMP inducible beta-galactosidase reporter gene were thawed, centrifuged, DMSO containing media removed, and then seeded with fresh culture media into clear 384-well tissue culture treated plates (BD #353961) at a concentration of 10K cells/well. Prior to assay, these plates were cultured for two days at 37° C., 5% CO2, 90% Rh. On the day of the functional assay, culture media was removed and replaced with 45 μL assay medium (Hams/F-12 Modified (Mediatech # 10-080CV) supplemented w/0.1% BSA). Test compounds were diluted and 11 point curves created at a 1000× concentration in 100% DMSO. Immediately after addition of assay media to the cell plates, 50 nL of the appropriate test compound antagonist or agonist control curves were added to cell plates using a Cartesian Hummingbird. Compound curves were allowed to incubate at room temperature on cell plates for approximately 15 minutes before addition of a 15 nM NECA (Sigma E2387) agonist challenge (5 μL volume). A control curve of NECA, a DMSO/Media control, and a single dose of Forskolin (Sigma F3917) were also included on each plate. After additions, cell plates were allowed to incubate at 37° C., 5% CO2, 90% Rh for 5.5-6 hours. After incubation, media were removed, and cell plates were washed 1×50 μL with DPBS w/o Ca & Mg (Mediatech 21-031-CV). Into dry wells, 20 μL of 1×Reporter Lysis Buffer (Promega E3971 (diluted in dH2O from 5× stock)) was added to each well and plates frozen at −20° C. overnight. For β-galactosidase enzyme colorimetric assay, plates were thawed out at room temperature and 20 μL 2× assay buffer (Promega) was added to each well. Color was allowed to develop at 37° C., 5% CO2, 90% Rh for 1-1.5 h or until reasonable signal appeared. The colorimetric reaction was stopped with the addition of 60 μL/well 1M sodium carbonate. Plates were counted at 405 nm on a SpectraMax Microplate Reader (Molecular Devices). Data was analyzed in Microsoft Excel and IC/EC50 curves were fit using a standardized macro.

Row | IC50 [1] [nM] | IC50 [2] [nM] | A1/A2A [2] | SMILES
1 | 1400 | 3.2 | 437.5 | N#Cc1cccnc1N1CCN(c2cccc3c2-c2nc(N)nc(-c4ccccc4)c2C3=O)CC1 [Example 14, 2-[4-(2-Amino-5-oxo-4-phenyl-5H-indeno[1,2-d]pyrimidin-9-yl)-piperazin-1-yl]-nicotinonitrile]
2 | 1080 | 10.3 | 104.858 | CCCN1CCN(c2cccc3c2-c2nc(N)nc(-c4ccccc4)c2C3=O)CC1 [Example 19, 2-Amino-4-phenyl-9-(4-propyl-piperazin-1-yl)-indeno[1,2-d]pyrimidin-5-one]
3 | 2100 | 2.7 | 777.778 | N#Cc1ccc(N2CCN(c3cccc4c3-c3nc(N)nc(-c5ccccc5)c3C4=O)CC2)nc1 [Example 8, 6-[4-(2-Amino-5-oxo-4-phenyl-5H-indeno[1,2-d]pyrimidin-9-yl)-piperazin-1-yl]-nicotinonitrile]
4 | 25 | 0.14 | 178.571 | COc1ccc(N2CCN(c3cccc4c3-c3nc(N)nc(-c5ccccc5)c3C4=O)CC2)cc1 [Example 16, 2-Amino-9-[4-(4-methoxy-phenyl)-piperazin-1-yl]-4-phenyl-indeno[1,2-d]pyrimidin-5-one]
5 | 818 | 10.6 | 77.5711 | Nc1nc(-c2ccccc2)c2c(n1)-c1c(cccc1N1CCN(CC3CC3)CC1)C2=O [Example 22, 2-Amino-9-(4-cyclopropylmethyl-piperazin-1-yl)-4-phenyl-indeno[1,2-d]pyrimidin-5-one]
6 | 250 | 0.36 | 694.444 | COCCOc1ccc(N2CCN(c3cccc4c3-c3nc(N)nc(-c5ccccc5)c3C4=O)CC2)cc1 [Example 11, 2-Amino-9-{4-[4-(2-methoxy-ethoxy)-phenyl]-piperazin-1-yl}-4-phenyl-indeno[1,2-d]pyrimidin-5-one]
